The record followed here is paper PMC7463714, “Design and Synthesis of Novel Hybrid 8-Hydroxy Quinoline-Indole Derivatives as Inhibitors of Aβ Self-Aggregation and Metal Chelation-Induced Aβ Aggregation” (Molecules, 2020).

“Also recorded” adds a separate entry of the source.

The target of one test is T1, Aβ1–42 (Homo sapiens, UniProt P05067).
T1 construct: Aβ1–42 (Adooq Bioscience, CA, USA); purchased Adooq Bioscience
Put plainly: Self-induced Aβ1–42 aggregation, thioflavin T (ThT) fluorescence assay. In kind it is biochemical. The following applies: 25 µM Aβ1–42; compound 0.3-27 µM; 37 °C, 48 h; ThT fluorescence; read-out: EC50 against self-induced Aβ1–42 aggregation. Here is the method:
The novel hybrid 8-hydroxyquinoline-indole derivatives, 7a–7e, 12a, 12b, and the (8-hydroxyquinolin-2-yl)methyl-4-(1H-indole-2-carbonyl)piperazine-1-carboxylate analogs 18a–18h were evaluated for inhibitory activity against self-induced Aβ1–42 aggregation at five different concentrations (0.3, 1.0, 3, 9 and 27 µM) with 25 µM Aβ1–42, utilizing a thioflavin T (ThT) fluorescence assay with clioquinol, 1 as a positive control (Figure 3). In the absence of inhibitor, the self-induced Aβ1–42 aggregation ThT fluorescence was recorded as 115 arbitrary units (a.u.). The self-induced Aβ1–42 aggregation results for all the above synthetic analogs from the ThT fluorescence assay are shown in Table 1. […] The thioflavin T (ThT)-fluorescence assay was used to measure the inhibition of Aβ aggregation. Aβ1–42 (Adooq Bioscience, CA, USA) was pretreated with 1 mL of hexafluoroisopropanol (HFIP) to afford a stock solution, which was aliquoted into small samples. The solvent was evaporated at room temperature, and samples were stored at −80 °C. For Aβ1–42 aggregation inhibition experiments, phosphate buffer (pH 7.4) was added to the Aβ stock solution to afford a 50 µM concentration before use. A mixture of the Aβ1–42 peptide (10 µL, 25 µM final concentration) with or without the test compound (10 µL; 0.3, 1.0, 3, 9, and 27 µM) was incubated at 37 °C for 48 h. Blanks using phosphate buffer (pH 7.4) instead of Aβ, with or without test compound, were also assessed. Then 50 mM glycine-NaOH buffer (pH 8.0) containing ThT (5 µM) was added to 20 µL of the sample to afford a final volume of 200 µL. The fluorescence intensities were recorded (excitation, 450 nm; emission, 485 nm). The fluorescence intensities were background corrected to the no enzyme control and 100% of intensity reflected no inhibition of aggregation. To obtain the normalized amyloid aggregation inhibition relative to the control group, the amyloid aggregation/cell values were further divided by the total amyloid fluorescence of the control group. Using GraphPad Prism, the amyloid aggregation values (relative to control group) were entered along the corresponding concentrations for the triplicates and then a log transformation was obtained. Using the dose–response simulation module in GraphPad Prism, nonlinear regression fit (curve) was then generated for each small molecule with various concentrations used. Curves were then compared to determine if they were statistically different, by performing the best-fit values of selected unshared parameters between data sets and extra sum-of-squares F test, allowing for selection of the simpler model unless the P value was less than 0.05. The logEC50 output parameter was then selected to obtain the EC50 for each of the dose–response curves for the small molecules.

The next test has as its system HEK-tau cells. Put plainly: Protein aggregation in HEK-tau cells (ThT staining). The note with it: 1 µM, 48 h, 37 °C; compared to clioquinol (1). In kind it is cell-based, Human. Here is the method:
In our study, we have shown that restoring metal homeostasis by treatment with hybrid 8-hydroxyquinoline-indole analogs reduces tau- and amyloid-mediated protein aggregation, and their associated neurotoxicity. Analogs 7a–7d, 18c–18f, and 18h were evaluated for their ability to reduce protein aggregation in HEK-tau cells. HEK-tau cells were exposed to the above Aβ1–42 aggregation inhibitors and parent drug clioquinol (1) at 1 µM for 48 h at 37 °C. Cells were assessed for amyloid deposits by staining with 0.1% w/v thioflavin T, counterstaining nuclei with DAPI, and mean ThT fluorescence signal per nucleus was calculated over multiple fields. All the analogs reduced fluorescence intensity (indicative of protein aggregation) by 26–62% (P < 0.001 by 2-tailed t-test).
(§1) Human Embryonic Kidney cells that overexpress tau protein (HEK-tau) cells or SY5Y neuroblastoma cells that express a familial-AD mutant of amyloid precursor protein (SY5Y-APPSw cells) were each seeded in 96-well plates at 8000 cells per well. After 24 h, cells were supplemented with test compound at 1 µM after diluting with medium. Vehicle only control was also included for each experiment. The cells were cultured for an additional 48 h at 37 °C. Both the cell lines were able to reach approximately 80% confluency in 48 h. Cells were assessed for amyloid deposits by staining with 0.1% w/v ThT, counterstaining nuclei with DAPI, and calculating mean ThT fluorescence signal per nucleus over multiple fields.

For test [1], the target named is T2, Cu^2+-induced Aβ1–42 aggregation (Homo sapiens, UniProt P05067).
T2 construct: Aβ1–42 (Adooq Bioscience, CA, USA); purchased Adooq Bioscience
T2 sequence (P05067 672-713 limits assumed): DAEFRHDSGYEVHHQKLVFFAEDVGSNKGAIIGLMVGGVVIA
Put plainly: Cu2+-induced Aβ1–42 aggregation, ThT fluorescence assay. The format is biochemical. The note with it: compound 50 µM; Aβ1–42 25 µM; Cu^2+ 25 µM; 24 h, 37 °C. Here is the method:
(§2) Initially, CuSO4 or ZnCl2 was added to Aβ1–42 peptides at room temperature and the mixture incubated with or without drugs for 24 h at 37 °C. The fluorescence intensity of Aβ1–42 peptide alone was designated as 100%.
(§3) Mixtures of the peptide (10 µL, 25 µM final concentration) with or without Cu^2+ or Zn^2+ (10 µL, 25 μM final concentration) and the test compound (10 µL, 50 μM final concentration) were incubated at 37 °C for 24 h. Then 50 mM glycine-NaOH buffer (pH 8.0) containing ThT (5 µM) was added to 20 µL of the sample and diluted to afford a final volume of 200 µL. Fluorescence intensities of the solutions were recorded (excitation, 450 nm; emission, 485 nm). The percentage of […] was calculated by the expression (1 − IFi/IFc) × 100, in which IFi and IFc are the fluorescence intensities obtained for Aβ in the presence and absence of inhibitors, respectively.

The subject of the next test is SY5Y-APPSw cells. Put plainly: Protein aggregation in SY5Y-APPSw cells (ThT staining). In kind it is cell-based. The note with it: 1 µM, 48 h, 37 °C; compared to clioquinol (1). The method, then:
In another study compounds 7a–7d, 18c–18f, and 18h were also evaluated for their ability to reduce protein aggregation in SY5Y-APPSw cells. SY5Y-APPSw cells were exposed to the above protein aggregation inhibitors and parent compound 1 at 1 µM for 48 h at 37 °C. Cells were assessed for amyloid deposits by staining with 0.1% w/v ThT, counterstaining nuclei with DAPI, and mean ThT fluorescence signal per nucleus calculated over multiple fields. All the analogs reduced fluorescence intensity (indicative of protein aggregation) by 22–67% (P < 0.001 by 2-tailed t-test). […] Thioflavin-T fluorescence assays for in vitro amyloid aggregation and cell culture models of amyloid aggregation overlap but are not identical. This is due to the fact that thioflavin in cell-culture stains not just amyloid aggregates but also other amyloid-like fibrillar structures. Another important difference is that in vitro aggregation is assessed after 24 h, whereas aggregation in cell culture is assessed after 48 h.
as §1

Test [2] concerns the target T3, Zn^2+-induced Aβ1–42 aggregation (Homo sapiens, UniProt P05067).
T3 construct: Aβ1–42 (Adooq Bioscience, CA, USA); purchased Adooq Bioscience
The test can be described thus: Zn2+-induced Aβ1–42 aggregation, ThT fluorescence assay. The note with it: compound 50 µM; Aβ1–42 25 µM; Zn^2+ 25 µM; 24 h, 37 °C. The format is biochemical. The method, then:
as §2, §3

T1 sequence (P05067 672-713 limits assumed): as above
T3 sequence (P05067 672-713 limits assumed): as above

Consider `O=C(OCc1ccc2c(Cl)cc(Cl)c(O)c2n1)c1cc2ccccc2[nH]1` [Compound 7b, (5,7-Dichloro-8-hydroxyquinolin-2-yl)methyl-1H-indole-2-carboxylate], for which the EC50 at Aβ1–42 is 9.28 µM.

For `O=C(OCc1ccc2c(Br)cc(Br)c(O)c2n1)N1CCN(C(=O)c2cc3ccccc3[nH]2)CC1` [Compound 18b, (5,7-Dibromo-8-hydroxyquinolin-2-yl)methyl-4-(1H-indole-2-carbonyl)piperazine-1-carboxylate], on Aβ1–42, the EC50 was more than 10 µM.

As for `COc1ccc2[nH]c(C(=O)N3CCN(C(=O)OCc4ccc5cccc(O)c5n4)CC3)cc2c1` [Compound 18d, (8-Hydroxyquinolin-2-yl)methyl-4-(5-methoxy-1H-indole-2-carbonyl)piperazine-1-carboxylate], the EC50 on Aβ1–42 was determined as 1.48 µM. Further, in the test on HEK-tau cells, the “protein aggregation inhibition in HEK-tau cells, result in words” value is listed as “effective in reducing protein aggregation”. Besides, the “decrease of ThT fluorescence / inhibition of Cu^2+-induced Aβ1–42 aggregation” value in test [1] stood at 66.1%. The “protein aggregation inhibition in SY5Y-APPSw cells, result in words” value with SY5Y-APPSw cells is given as “most effective; also recorded: effective in reducing protein aggregation”. Besides, in test [2], the “decrease of ThT fluorescence / inhibition of Zn^2+-induced Aβ1–42 aggregation” value is recorded as 59.3%.

Take `COc1ccc2[nH]c(C(=O)OCc3ccc4cccc(O)c4n3)cc2c1` [Compound 7c, (8-Hydroxyquinolin-2-yl)methyl-5-methoxy-1H-indole-2-carboxylate]: the EC50 on Aβ1–42 was determined as 3.22 µM.

With `O=C(OCc1ccc2c(Cl)cc(Cl)c(O)c2n1)N1CCN(C(=O)c2cc3ccccc3[nH]2)CC1` [Compound 18c, (5,7-Dichloro-8-hydroxyquinolin-2-yl)methyl-4-(1H-indole-2-carbonyl)piperazine-1-carboxylate], the concentration giving a half-maximal response (EC50) at Aβ1–42 came to 1.72 µM. The “protein aggregation inhibition in HEK-tau cells, result in words” value in the test on HEK-tau cells is recorded as “most effective; also recorded: effective in reducing protein aggregation”. Also, in test [1], the “decrease of ThT fluorescence / inhibition of Cu^2+-induced Aβ1–42 aggregation” value came to 76.6%. Further, the “protein aggregation inhibition in SY5Y-APPSw cells, result in words” value in the test on SY5Y-APPSw cells is on record as “effective in reducing protein aggregation”. Besides, in test [2], the “decrease of ThT fluorescence / inhibition of Zn^2+-induced Aβ1–42 aggregation” value was 70.3%.

As for `O=C(O)c1cc2ccccc2[nH]1` [Compound 5a, 1H-indole-2-carboxylic acid, reference compound], on Aβ1–42, the EC50 was more than 20 µM.

As for `COc1ccc2[nH]c(C(=O)N3CCN(C(=O)OCc4ccc5c(Br)cc(Br)c(O)c5n4)CC3)cc2c1` [Compound 18e, (5,7-Dibromo-8-hydroxyquinolin-2-yl)methyl-4-(5-methoxy-1H-indole-2-carbonyl)piperazine-1-carboxylate], on Aβ1–42, the EC50 turned out to be 2.49 µM.

As to `O=C(OCc1ccc2cccc(O)c2n1)N1CCN(C(=O)c2cc3cc(F)ccc3[nH]2)CC1` [Compound 18h], the concentration giving a half-maximal response (EC50) at Aβ1–42 came to 2.58 µM.

For the compound `COc1ccc2[nH]c(C(=O)NCc3ccc4c(Cl)cc(Cl)c(O)c4n3)cc2c1` [Compound 12b, N-((5,7-Dichloro-8-hydroxyquinolin-2-yl)methyl)-5-methoxy-1H-indole-2-carboxamide], the EC50 at Aβ1–42 is more than 10 µM.

With `O=C(OCc1ccc2cccc(O)c2n1)c1cc2cc(F)ccc2[nH]1` [Compound 7d, (8-Hydroxyquinolin-2-yl)methyl-5-fluoro-1H-indole-2-carboxylate], the EC50 at Aβ1–42 was found to be 6.34 µM.

On to `O=C(OCc1ccc2cccc(O)c2n1)c1cc2ccccc2[nH]1` [Compound 7a, (8-Hydroxyquinolin-2-yl)methyl-1H-indole-2-carboxylate], for which, on Aβ1–42, the EC50 was determined as 4.26 µM. Further, in the test on SY5Y-APPSw cells, the “protein aggregation inhibition in SY5Y-APPSw cells, result in words” value was “most effective”.

As to `Oc1c(I)cc(Cl)c2cccnc12` [Compound 1, Clioquinol, reference compound], on Aβ1–42, the half-maximal effective concentration (EC50) came to 9.95 µM. Further, the “decrease of ThT fluorescence / inhibition of Cu^2+-induced Aβ1–42 aggregation” value in test [1] stood at 62.5%. Moreover, in test [2], the “decrease of ThT fluorescence / inhibition of Zn^2+-induced Aβ1–42 aggregation” value is 57.2%.

`O=C(OCc1ccc2cccc(O)c2n1)N1CCN(C(=O)c2cc3ccccc3[nH]2)CC1` [Compound 18a, (8-Hydroxyquinolin-2-yl)methyl-4-(1H-indole-2-carbonyl)piperazine-1-carboxylate]: the EC50 at Aβ1–42 is more than 10 µM.

Take `O=C(OCc1ccc2c(Cl)cc(Cl)c(O)c2n1)c1cc2cc(F)ccc2[nH]1` [Compound 7e, (5,7-Dichloro-8-hydroxyquinolin-2-yl)methyl-5-fluoro-1H-indole-2-carboxylate]: the EC50 on Aβ1–42 came to 9.52 µM.

For `O=C(NCc1ccc2c(Cl)cc(Cl)c(O)c2n1)c1cc2ccccc2[nH]1` [Compound 12a, N-((5,7-Dichloro-8-hydroxyquinolin-2-yl)methyl)-1H-indole-2-carboxamide], the 50% effective concentration (EC50) on Aβ1–42 was more than 10 µM.

With `O=C(OCc1ccc2c(Cl)cc(Cl)c(O)c2n1)N1CCN(C(=O)c2cc3cc(F)ccc3[nH]2)CC1` [Compound 18g, (5,7-Dichloro-8-hydroxyquinolin-2-yl)methyl-4-(5-fluoro-1H-indole-2-carbonyl)piperazine-1-carboxylate], the EC50 on Aβ1–42 is more than 10 µM.
